Measured values reported in BindingDB's records for doi:10.1016/j.bmc.2010.06.094 (Shahid Beheshti University of Medical Sciences, 2010).

What was measured:
[1] = molecular target: Prostaglandin G/H synthase 1 / COX-1 (Ovis aries) (UniProt P05979); assay: Inhibition of sheep COX1
[2] = molecular target: Prostaglandin G/H synthase 2 / COX-2 (Ovis aries) (UniProt P79208); assay: Inhibition of sheep COX2

SMILES | IC50 [1] [µM] | IC50 [2] [µM]
CC(=O)Nc1ccc(-c2cc(C(=O)O)c3cc(C(=O)c4ccccc4)ccc3n2)cc1 [2-(4-acetamido)phenyl)-6-benzoyl-quinoline-4-carboxylic acid] | 21.8 | 0.085
[N-]=[N+]=Nc1ccc(-c2cc(C(=O)O)c3cc(C(=O)c4ccccc4)ccc3n2)cc1 [2-(4-azido)phenyl)-6-benzoyl-quinoline-4-carboxylic acid] | > 100 | 0.077
CS(=O)(=O)c1ccc(-c2cc(C(=O)O)c3cc(C(=O)c4ccccc4)ccc3n2)cc1 [6-benzoyl-2-(4-(methylsulfonyl)phenyl)quinoline-4-carboxylic acid] | 24.4 | 0.077
CS(=O)(=O)c1ccc(-c2cc(C(=O)O)c3cccc(C(=O)c4ccccc4)c3n2)cc1 [8-benzoyl-2-(4-(methylsulfonyl)phenyl)quinoline-4-carboxylic acid] | 15.9 | 0.069

Other lines, results leading:

IC50 [1] [µM] | IC50 [2] [µM] | SMILES
13.4 |  | CS(=O)(=O)c1ccc(-c2cc(C(=O)O)c3ccccc3n2)cc1 [2-(4-(methylsulfonyl)phenyl)-quinoline-4-carboxylic acid]
9.2 | 0.08 | CC(=O)Nc1ccc(-c2cc(C(=O)O)c3cccc(C(=O)c4ccccc4)c3n2)cc1 [2-(4-acetamido)phenyl)-8-benzoyl-quinoline-4-carboxylic acid]
65.5 | 0.057 | [N-]=[N+]=Nc1ccc(-c2cc(C(=O)O)c3cccc(C(=O)c4ccccc4)c3n2)cc1 [2-(4-azido)phenyl)-8-benzoyl-quinoline-4-carboxylic acid]
